How the values were obtained:
P-glycoprotein = conditions: cited from earlier work
[1] = in contrast to cyclosporin A; cited from earlier work
P-glycoprotein-ATPase = conditions: cited from earlier work
leukemia = conditions: randomized trials, combination chemotherapy against leukemia; cited from earlier work
HCT-15/ADM1 = assay: XTT in vitro growth inhibition assay, HCT-15/ADM1; type: cell-based, human; conditions: IC50 of HCT-15/ADM1 divided by IC50 of parental HCT-15
HCT-15/ADM2 = assay: XTT in vitro growth inhibition assay, HCT-15/ADM2; type: cell-based, human; conditions: IC50 of HCT-15/ADM2 divided by IC50 of parental HCT-15
HCT-15 = assay: XTT in vitro growth inhibition assay, parental HCT-15; type: cell-based, human; conditions: IC50 of subline divided by IC50 of parental cells; HCT-15 (parental, reference)
HCT-15/ADM2-2 = assay: XTT in vitro growth inhibition assay, HCT-15/ADM2-2; type: cell-based, human; conditions: IC50 of HCT-15/ADM2-2 divided by IC50 of parental HCT-15

| Compound | Effect on binding of photoactive analogues of cyclosporin to P-glycoprotein (P-glycoprotein) | Immunosuppressive activity [1] | Inhibition of substrate-stimulated P-glycoprotein-ATPase activity (P-glycoprotein-ATPase) | Complete remission rates or survival (leukemia) | Relative resistance (HCT-15/ADM1) | Relative resistance (HCT-15/ADM2) | Relative resistance (HCT-15) | Relative resistance (HCT-15/ADM2-2) |
| --- | --- | --- | --- | --- | --- | --- | --- | --- |
| [3′‐keto‐Bmt^1]‐[Val^2]‐cyclosporin [Valspodar] | inhibited | non-immunosuppressive | more potent than cyclosporin A | failed to improve | – | – | – | – |
| CC(=O)O[C@H]1C(=O)[C@@]2(C)[C@H]([C@H](OC(=O)c3ccccc3)[C@]3(O)C[C@H](OC(=O)[C@H](O)[C@@H](NC(=O)c4ccccc4)c4ccccc4)C(C)=C1C3(C)C)[C@]1(OC(C)=O)CO[C@@H]1C[C@@H]2O [Taxol, paclitaxel] | – | – | – | – | 2.81 | 2.63 | 1 | 4.81 |
| CC[C@]1(O)C[C@H]2CN(CCc3c([nH]c4ccccc34)[C@@](C(=O)OC)(c3cc4c(cc3OC)N(C=O)[C@H]3[C@@](O)(C(=O)OC)[C@H](OC(C)=O)[C@]5(CC)C=CCN6CC[C@]43[C@@H]65)C2)C1 [Vincristine] | – | – | – | – | 2.03 | 2.19 | 1 | 2.96 |
| COc1cccc2c1C(=O)c1c(O)c3c(c(O)c1C2=O)C[C@@](O)(C(=O)CO)C[C@@H]3O[C@H]1C[C@H](N)[C@@H](O)[C@H](C)O1 [Epirubicin] | – | – | – | – | 1.58 | 3.34 | 1 | 4.33 |
| COc1cc([C@@H]2c3cc4c(cc3[C@@H](O[C@@H]3O[C@@H]5CO[C@@H](C)O[C@H]5[C@H](O)[C@H]3O)[C@H]3COC(=O)[C@H]23)OCO4)cc(OC)c1O [Etoposide] | – | – | – | – | 2.27 | 2.55 | 1 | 3.16 |
| COc1cccc2c1C(=O)c1c(O)c3c(c(O)c1C2=O)C[C@@](O)(C(=O)CO)C[C@@H]3O[C@H]1C[C@H](N)[C@H](O)[C@H](C)O1 [Adriamycin] | – | – | – | – | 2.23 | 4.40 | 1 | 7.77 |
| O=C1c2c(O)ccc(O)c2C(=O)c2c(NCCNCCO)ccc(NCCNCCO)c21 [Mitoxantrone] | – | – | – | – | 1.42 | 5.40 | 1 | 3.12 |
| CO[C@@]12[C@H](COC(N)=O)C3=C(C(=O)C(C)=C(N)C3=O)N1C[C@@H]1N[C@@H]12 [Mitomycin C] | – | – | – | – | 0.80 | 1.77 | 1 | 0.26 |

Source: PMC5926616 (Japanese Journal of Cancer Research : Gann, 2001)
